Assay results reported in PMC3660367, “MARCKS Protein Is Phosphorylated and Regulates Calcium Mobilization during Human Acrosomal Exocytosis” (PLoS ONE, 2013).
No end group written: not given here.

Test system: acrosomal exocytosis in non-permeabilized human sperm
Assay: Acrosomal exocytosis assay in non-permeabilized (living) human sperm
Format: cell-based
Experimental: Acrosomal exocytosis assays were performed as previously described. Briefly, human semen obtained from normal healthy donors was allowed to liquefy for 30-60 min at 37°C. We used a swim-up protocol to isolate highly motile sperm under capacitating conditions in Human Tubal Fluid media (HTF, as formulated by Irvine Scientific, Santa Ana, CA) supplemented with 0.5% bovine serum albumin (BSA) for 1 h at 37°C in an atmosphere of 5% CO2/95% air. Sperm concentrations were adjusted to 5–10×10^6 cells/ml and incubated for at least 2 h under capacitating conditions. We have shown previously that human sperm incubated under these conditions are responsive to progesterone. […] Acrosomal status was evaluated by staining with FITC-coupled Pisum sativum agglutinin (FITC-PSA) according to [21]. At least 200 cells were scored using a Nikon Optiphot II microscope equipped with epifluorescence optics. […] For each experiment, acrosomal exocytosis indexes were calculated by subtracting the number of reacted spermatozoa in the negative control (range 10%–30%) from all values, and expressing the resulting values as a percentage of the acrosome exocytosis observed in the positive control (range 25%–40%). […] Data were evaluated using one-way ANOVA and post hoc tests (Dunnett's test or confident intervals). […]

KKRFSFKKSFKL (also: tetramethylrhodamine conjugate, site not given here) [ED-TMR, commercial (Anaspec) tetramethylrhodamine-conjugated peptide … from residues 154–165 of human MARCKS ED]
effect on acrosomal exocytosis stimulated by A23187, PMA and progesterone (non-permeabilized capacitated sperm, peptide 30 min 37°C, then 10 µM A23187, 200 nM PMA or 15 µM progesterone 15 min): inhibited the secretion | acrosomal exocytosis index at high concentrations versus unstimulated controls (basal exocytosis) (non-permeabilized sperm, high concentrations): significantly lower than the index in unstimulated controls
